We go through 14 compounds from ChEMBL document CHEMBL3745622 (Bioorg Med Chem, 2016).

pIC50, pKi: −log10 of the molar value.

For data set [1], the target named is T1, Tyrosinase (Agaricus bisporus, UniProt O42713).
T1 sequence (O42713 whole entry): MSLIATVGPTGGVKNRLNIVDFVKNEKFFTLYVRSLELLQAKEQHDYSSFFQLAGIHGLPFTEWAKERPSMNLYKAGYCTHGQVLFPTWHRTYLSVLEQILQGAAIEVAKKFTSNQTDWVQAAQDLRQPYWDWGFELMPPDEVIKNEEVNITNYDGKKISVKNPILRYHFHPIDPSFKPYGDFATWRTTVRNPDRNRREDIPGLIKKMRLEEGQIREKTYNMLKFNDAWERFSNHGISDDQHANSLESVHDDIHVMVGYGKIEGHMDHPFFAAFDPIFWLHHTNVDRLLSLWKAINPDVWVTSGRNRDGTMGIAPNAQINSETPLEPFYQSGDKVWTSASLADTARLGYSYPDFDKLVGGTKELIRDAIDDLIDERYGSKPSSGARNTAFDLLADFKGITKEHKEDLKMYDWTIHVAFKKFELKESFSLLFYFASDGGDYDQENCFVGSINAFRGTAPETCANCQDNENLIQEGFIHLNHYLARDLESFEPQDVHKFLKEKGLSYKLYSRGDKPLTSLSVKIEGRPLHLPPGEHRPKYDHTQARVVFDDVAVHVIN
Description: (§1) Inhibition of monophenolase activity of mushroom tyrosinase using L-tyrosine as substrate preincubated with substrate for 10 mins followed by protein addition measured after 15 mins by spectrophotometric analysis

Data set [2] has as its target T1, Tyrosinase. This is another data set of the same source.
Description: (§2) Inhibition of diphenolase activity of mushroom tyrosinase using L-DOPA as substrate preincubated with substrate for 10 mins followed by protein addition measured after 15 mins by spectrophotometric analysis
The target of data set [3] is T1, Tyrosinase. The source holds these as a separate data set.
Description: Competitive inhibition of diphenolase activity of mushroom tyrosinase using L-DOPA as substrate preincubated for 5 to 60 mins by Lineweaver-Burk and Dixon plot analysis
Data set [4] has as its target T1, Tyrosinase. The source holds these as a separate data set.
In data set [5] the target is T2, Tyrosinase (Agaricus bisporus) (UniProt O42713).
T2 sequence (whole entry): T1 sequence (O42713 whole entry)
Description: as §2

Data set [6] relates to B16. In words: cells. The note with it: Mus musculus, B16, 72 h.
Description: Inhibition of alpha-MSH-stimulated melanin production in mouse B16 cells after 72 hrs by microplate reader analysis
In data set [7] the target is T1, Tyrosinase. The experiment in a line: Time dependent inhibition of monophenolase activity of mushroom tyrosinase using L-tyrosine as substrate measured every 30 secs by Morrison and Walsh plot analysis. As to conditions: read-out: Ki(app).
The nature of data set [8]: in vitro. As to conditions: mouse, B16 cells.
Description: Cytotoxicity against mouse B16 cells assessed as cell viability after 72 hrs by MTT assay
Data set [9] relates to B16. In words: Potency index, ratio of kojic acid IC50 to compound IC50 for alpha-MSH-stimulated melanin production in mouse B16 cells. It counts as functional.
Data set [10] addresses T2, Tyrosinase (Agaricus bisporus). This is another data set of the same source.
Description: as §1

`CC(C)=CCc1c(O)ccc(C2COc3cc(O)c(CC=C(C)C)c(O)c3C2=O)c1O` (stereo unspecified): the pIC50 in [1] and in data set [2] was < 3.70 each time.
Consider `CC(C)=CCC/C(C)=C/Cc1cc(C2Oc3cc(O)c(C)c(O)c3C(=O)C2=O)ccc1O` (stereo unspecified), for which the pIC50 in [1] and in [2] was < 3.70 in each case.
For the compound `COc1c(C2COc3cc(O)c(CC=C(C)C)c(O)c3C2=O)ccc(O)c1CC=C(C)C` (stereo unspecified), the negative logarithm of the IC50 (pIC50) in [1] and in data set [2] was < 3.70 in each case.
Take `COc1cc(C2COc3cc4c(c(OC)c3C2)C=CC(C)(C)O4)c(O)cc1O` (stereo unspecified): the pIC50 in [1] and in data set [2] was < 3.70 in each case.
In the case of `CC(C)=CCC/C(C)=C/COc1ccc(-c2coc3cc(O)cc(O)c3c2=O)cc1O`, the negative-log IC50 (pIC50) in data set [1] and in data set [2] was < 3.70 in each case.
As to `COc1cc(O)ccc1C1COc2cc3c(c(O)c2C1=O)C=CC(C)(C)O3` (stereo unspecified), the negative-log IC50 (pIC50) (as a rule, the negative decadic logarithm of the IC50, by convention in mol/L) in data set [1] was < 3.70; in data set [2], 3.83. Further, the pKi (usually −log10 of the Ki, conventionally taken in molar units) in data set [3] is 4.25.
For `COc1c2c(cc3c1C[C@H](c1ccc(O)cc1O)CO3)OC(C)(C)C=C2`, the pKi in data set [4] is 7.72; in [7] it was 8.83; in [3], 6.89. The negative logarithm of the IC50 (pIC50) in [1] is 7.52; in data set [6], 4.89; in [2] it was 6.30. Further, the inhibition result in data set [5] and in [10] was “Dose-dependent effect” in each case. In addition, the CC50 – broadly, the concentration that lowers cell viability or growth by half – at 72 h in [8] turned out to be 104 µM. Further, the “Ratio IC50” value in data set [9] is reported as 200.
Regarding `CC(C)=CCC/C(C)=C/Cc1c(O)ccc(C2COc3cc(O)cc(O)c3C2=O)c1O` (stereo unspecified), the negative logarithm of the Ki (pKi) in data set [4] was 5.74; in data set [7], 6.82; in [3], 4.12. Also, the figures for the negative logarithm of the IC50 (pIC50) in data set [1], in data set [6] and in [2] were 5.54, 4.37 and 3.89, respectively. Also, the inhibition entry in [5] and in data set [10] was “Dose-dependent effect” throughout. For the same compound, the CC50 at 72 h in [8] was 241 µM.
For the compound `CC(C)=CCC/C(C)=C/Cc1c(O)ccc(C2(O)COc3cc(O)cc(O)c3C2=O)c1O` (stereo unspecified), the negative logarithm of the Ki (pKi) was 5.12 in data set [4] and 4.09 in [3]. For the same compound, the pIC50 in [1] is 4.74; in data set [2], 3.84. Further, the inhibition entry in [5] and in data set [10] was “Dose-dependent effect” each time.
Turning to `C/C(=C\Cc1ccc(-c2coc3cc(O)cc(O)c3c2=O)cc1O)CCCC(C)(C)O`, the pIC50 in [1] and in data set [2] was < 3.70 throughout.
As to `CC(C)=CCC/C(C)=C/Cc1cc(C2CC(=O)c3c(cc(O)c(C)c3O)O2)ccc1O` (stereo unspecified), the negative logarithm of the IC50 (pIC50) in data set [1] and in data set [2] was < 3.70 throughout.
As to `CC(C)=CCC/C(C)=C/Cc1c(O)ccc(-c2coc3cc(O)cc(O)c3c2=O)c1O`, the pKi in data set [4] was 4.30. In addition, the pIC50 in data set [1] is 4.04; in [2], < 3.70. In addition, the inhibition result in data set [5] and in data set [10] was “Dose-dependent effect” in each case.
Consider `CC(C)=CCC/C(C)=C/Cc1cc(-c2coc3cc(O)cc(O)c3c2=O)ccc1O`, for which the pIC50 in [1] and in [2] was < 3.70 in each case.
Turning to `CC(C)=CCCCC1(C)C=Cc2cc(-c3coc4cc(O)cc(O)c4c3=O)ccc2O1` (stereo unspecified), the negative logarithm of the IC50 (pIC50) in data set [1] and in data set [2] was < 3.70 each time.
